US11780893B2, “Kv1.3 blockers” (Zealand Pharma A/S, priority 2019, dated 2023)
Read-outs that look alike come from different tables or passages of the source. Bridge positions count the residues as written; N and C are the ends. Square brackets hold non-standard residues; d marks the D form. Peptide text beside a SMILES is read from it. Nle = CCCC[C@H](N)C(=O)O

Assays:
Experiment in all cases: cell-based
Kv1.3 = biological target: T1, Kv1.3 (Homo sapiens, UniProt P22001)
T1 construct: expressed in transfected cells; host or cells: Chinese Hamster Ovary (CHO)

Kv1.6 = biological target: T2, Kv1.6 (Homo sapiens, UniProt P17658); conditions: for Selectivity Kv1.6/Kv1.3: ratio IC50[Kv1.6]/IC50[Kv1.3]
T2 construct: expressed in transfected cells; host or cells: Chinese Hamster Ovary (CHO)

Kv1.2 = biological target: T3, Kv1.2 (Homo sapiens, UniProt P16389)
T3 construct: expressed in transfected cells; host or cells: Chinese Hamster Ovary (CHO)

Kv1.1 = biological target: T4, Kv1.1 (Homo sapiens, UniProt Q09470); conditions: for Selectivity Kv1.1/Kv1.3: ratio IC50[Kv1.1]/IC50[Kv1.3]
T4 construct: expressed in transfected cells; host or cells: Chinese Hamster Ovary (CHO)

[1] = biological target: T5, human Kv1.3 voltage-gated K+ channel (Homo sapiens, UniProt P22001)
T5 construct: host or cells: CHO-DUKX

[2] = CHO cells, whole-cell patch clamp, read-out: Potency IC50 (nM) Kv1.3
[3] = CHO cells, whole-cell patch clamp, read-out: Potency IC50 (nM) Kv1.6
[4] = CHO cells, whole-cell patch clamp, read-out: Potency IC50 (nM) Kv1.2
[5] = CHO cells, whole-cell patch clamp, read-out: Potency IC50 (nM) Kv1.1
[6] = inhibition of thallium flux, CHO-DUKX cells with human Kv1.3, read-out: IC50

T4 sequence (Q09470 whole entry): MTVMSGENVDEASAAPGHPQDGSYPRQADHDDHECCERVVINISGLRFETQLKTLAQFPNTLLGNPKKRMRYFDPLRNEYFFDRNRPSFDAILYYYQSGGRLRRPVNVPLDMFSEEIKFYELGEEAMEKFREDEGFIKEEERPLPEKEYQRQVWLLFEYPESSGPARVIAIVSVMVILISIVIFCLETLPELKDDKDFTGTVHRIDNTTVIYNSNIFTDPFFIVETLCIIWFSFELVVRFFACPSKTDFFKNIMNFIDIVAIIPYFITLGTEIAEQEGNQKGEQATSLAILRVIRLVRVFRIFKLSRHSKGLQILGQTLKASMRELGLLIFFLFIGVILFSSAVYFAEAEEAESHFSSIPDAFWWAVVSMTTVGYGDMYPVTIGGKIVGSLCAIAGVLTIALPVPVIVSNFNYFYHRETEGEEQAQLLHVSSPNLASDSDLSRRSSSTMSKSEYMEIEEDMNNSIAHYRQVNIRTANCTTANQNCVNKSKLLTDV
T2 sequence (P17658 whole entry): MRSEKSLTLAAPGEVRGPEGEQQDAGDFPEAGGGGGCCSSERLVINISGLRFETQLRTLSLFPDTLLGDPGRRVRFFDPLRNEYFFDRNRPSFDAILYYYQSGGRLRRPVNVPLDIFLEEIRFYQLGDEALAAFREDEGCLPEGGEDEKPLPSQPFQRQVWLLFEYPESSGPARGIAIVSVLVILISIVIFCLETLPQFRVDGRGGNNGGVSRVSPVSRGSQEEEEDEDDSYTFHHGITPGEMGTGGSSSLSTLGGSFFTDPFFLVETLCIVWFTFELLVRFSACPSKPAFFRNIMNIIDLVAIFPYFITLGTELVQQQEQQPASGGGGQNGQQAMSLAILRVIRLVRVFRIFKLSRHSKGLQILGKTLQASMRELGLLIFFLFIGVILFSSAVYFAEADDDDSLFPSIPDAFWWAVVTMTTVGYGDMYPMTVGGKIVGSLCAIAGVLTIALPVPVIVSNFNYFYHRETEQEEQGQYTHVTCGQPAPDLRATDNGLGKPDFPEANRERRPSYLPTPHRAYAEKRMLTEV
T5 sequence (P22001 whole entry): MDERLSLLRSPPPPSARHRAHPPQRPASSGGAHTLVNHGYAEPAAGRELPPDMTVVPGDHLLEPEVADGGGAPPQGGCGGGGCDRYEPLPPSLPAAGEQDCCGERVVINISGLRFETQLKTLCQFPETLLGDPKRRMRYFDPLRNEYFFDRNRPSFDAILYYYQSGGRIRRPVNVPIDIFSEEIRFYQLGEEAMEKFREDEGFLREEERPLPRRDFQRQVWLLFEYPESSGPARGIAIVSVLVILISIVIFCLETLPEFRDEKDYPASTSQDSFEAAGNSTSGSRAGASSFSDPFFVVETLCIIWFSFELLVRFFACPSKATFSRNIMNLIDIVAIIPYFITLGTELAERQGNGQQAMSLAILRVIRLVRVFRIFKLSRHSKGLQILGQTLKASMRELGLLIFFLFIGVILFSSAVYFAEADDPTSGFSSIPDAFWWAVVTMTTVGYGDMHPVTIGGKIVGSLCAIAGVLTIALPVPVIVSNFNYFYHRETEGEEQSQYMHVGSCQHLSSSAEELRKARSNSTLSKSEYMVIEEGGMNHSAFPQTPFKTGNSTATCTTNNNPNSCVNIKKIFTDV
T1 sequence (P22001 whole entry): as above
T3 sequence (P16389 whole entry): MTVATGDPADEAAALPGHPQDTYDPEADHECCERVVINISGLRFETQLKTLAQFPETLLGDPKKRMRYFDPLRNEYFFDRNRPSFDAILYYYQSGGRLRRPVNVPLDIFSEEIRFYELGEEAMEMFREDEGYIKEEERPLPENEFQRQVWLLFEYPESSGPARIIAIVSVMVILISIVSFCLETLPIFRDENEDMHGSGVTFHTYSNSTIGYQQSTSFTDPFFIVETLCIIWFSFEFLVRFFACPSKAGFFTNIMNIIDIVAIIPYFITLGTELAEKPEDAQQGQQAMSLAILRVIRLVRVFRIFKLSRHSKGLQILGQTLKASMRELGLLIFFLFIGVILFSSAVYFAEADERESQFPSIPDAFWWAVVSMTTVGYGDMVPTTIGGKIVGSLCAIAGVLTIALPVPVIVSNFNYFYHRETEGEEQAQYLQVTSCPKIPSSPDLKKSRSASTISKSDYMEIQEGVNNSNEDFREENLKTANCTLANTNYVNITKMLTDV

For CC[C@H](C)[C@@H]1NC(=O)[C@H](C)NC(=O)[C@H](CCCCN)NC(=O)[C@H](CC(C)C)NC(=O)[C@@H]2CSSC[C@@H](C(=O)N[C@@H](Cc3ccc(O)cc3)C(=O)N3CCC[C@H]3C(=O)N[C@@H](CCCNC(=N)N)C(N)=O)NC(=O)[C@H](CCCCN)NC(=O)[C@@H]3CSSC[C@H](NC(=O)[C@H](CCC(=O)O)NC(=O)[C@H](C(C)C)NC(=O)[C@H](CO)NC(=O)[C@H](C)NC(=O)[C@H](CO)NC(=O)[C@@H](NC(=O)[C@H](CCCNC(=N)N)NC(=O)[C@H](CCSC)NC(=O)[C@H](CC(=O)O)NC(=O)[C@H](CCSC)NC(=O)[C@@H](N)CC(N)=O)CSSC[C@H](NC(=O)[C@H](CCCCN)NC(=O)CNC(=O)[C@H](Cc4ccccc4)NC(=O)[C@H]([C@@H](C)CC)NC(=O)[C@H](CO)NC(=O)CNC1=O)C(=O)N[C@@H](CCSC)C(=O)N[C@@H](CC(N)=O)C(=O)N[C@@H](CCCCN)C(=O)N[C@@H](CCCCN)C(=O)N3)C(=O)N[C@@H](CCCCN)C(=O)N[C@@H](CCC(N)=O)C(=O)N[C@@H](CC(C)C)C(=O)N2 [Compound 18] (H-NMDMRCSASVECKQLCLKAIGSIFGKCMNKKCKCYPR-NH2; disulfide 6-27, 12-32, 16-34), which IC50 (Kv1.3; [2]) is on record?
The IC50 was 0.24 nM.

And the IC50 (Kv1.6; [3])?
Its IC50 is over 3000 nM.

And the “Selectivity Kv1.6/Kv1.3” value (Kv1.6)?
The value was over 12700.

What about the IC50 (Kv1.2; [4]) of the same compound?
Its IC50 is 256 nM.

And the IC50 (Kv1.1; [5])?
The IC50 was over 3000 nM.

What about the “Selectivity Kv1.1/Kv1.3” value (Kv1.1) of the same compound?
The value was over 12700.

What about the IC50 [1, 6] of the same compound?
Its IC50 is 0.19 nM.

With CC[C@H](C)[C@@H]1NC(=O)[C@H](C)NC(=O)[C@H](CC(C)C)NC(=O)[C@@H]2CSSC[C@@H](C(=O)N[C@@H](Cc3ccc(O)cc3)C(=O)N3CCC[C@H]3C(=O)N[C@@H](CCCNC(=N)N)C(N)=O)NC(=O)[C@H](CCCCN)NC(=O)[C@@H]3CSSC[C@H](NC(=O)[C@H](CCC(=O)O)NC(=O)[C@H](C(C)C)NC(=O)[C@H](CO)NC(=O)[C@H](C)NC(=O)[C@H](CO)NC(=O)[C@@H](NC(=O)[C@H](CCCNC(=N)N)NC(=O)[C@H](CCSC)NC(=O)[C@H](CC(=O)O)NC(=O)[C@H](CCSC)NC(=O)[C@@H](N)CC(N)=O)CSSC[C@H](NC(=O)[C@H](CCCCN)NC(=O)CNC(=O)[C@H](Cc4ccccc4)NC(=O)[C@H]([C@@H](C)CC)NC(=O)[C@H](CO)NC(=O)CNC1=O)C(=O)N[C@@H](CCSC)C(=O)N[C@@H](CC(N)=O)C(=O)N[C@@H](CCCCN)C(=O)N[C@@H](CCCCN)C(=O)N3)C(=O)N[C@@H](CCCCN)C(=O)N[C@@H](CCC(N)=O)C(=O)N[C@@H](CCCCN)C(=O)N2 [Compound 54] (H-NMDMRCSASVECKQKCLAIGSIFGKCMNKKCKCYPR-NH2; disulfide 6-26, 12-31, 16-33) as the compound, how does the IC50 (Kv1.3; [2]) read?
Its IC50 is 2.41 nM.

And the IC50 (Kv1.6; [3])?
Its IC50 is over 3000 nM.

What about the “Selectivity Kv1.6/Kv1.3” value (Kv1.6) of the same compound?
The value was over 1200.

What about the IC50 (Kv1.2; [4]) of the same compound?
Its IC50 is 291 nM.

What about the IC50 (Kv1.1; [5]) of the same compound?
Its IC50 is over 3000 nM.

And the “Selectivity Kv1.1/Kv1.3” value (Kv1.1)?
The value was over 1200.

And the IC50 [1, 6]?
The IC50 was 0.46 nM.

With CC[C@H](C)[C@@H]1NC(=O)[C@H](C)NC(=O)[C@H](CCCCN)NC(=O)[C@H](CC(C)C)NC(=O)[C@@H]2CSSC[C@@H](C(=O)N[C@@H](Cc3ccc(O)cc3)C(=O)N3CCC[C@H]3C(=O)N[C@@H](CCCNC(=N)N)C(N)=O)NC(=O)[C@H](CCCCN)NC(=O)[C@@H]3CSSC[C@H](NC(=O)[C@H](CCC(=O)O)NC(=O)[C@H](C(C)C)NC(=O)[C@H](CO)NC(=O)[C@H](C)NC(=O)[C@H](CO)NC(=O)[C@@H](NC(=O)[C@H](CCCNC(=N)N)NC(=O)[C@H](CCSC)NC(=O)[C@H](CC(=O)O)NC(=O)[C@H](CCSC)NC(=O)[C@@H](N)CC(N)=O)CSSC[C@H](NC(=O)[C@H](CCCCN)NC(=O)CNC(=O)[C@H](Cc4ccccc4)NC(=O)[C@H](CCCCN)NC(=O)[C@H](CO)NC(=O)CNC1=O)C(=O)N[C@@H](CCSC)C(=O)N[C@@H](CC(N)=O)C(=O)N[C@@H](CCCCN)C(=O)N[C@@H](CCCCN)C(=O)N3)C(=O)N[C@@H](CCCCN)C(=O)N[C@@H](CCC(N)=O)C(=O)N[C@@H](CCCCN)C(=O)N2 [Compound 34] (H-NMDMRCSASVECKQKCLKAIGSKFGKCMNKKCKCYPR-NH2; disulfide 6-27, 12-32, 16-34) as the compound, how does the IC50 (Kv1.3; [2]) read?
Its IC50 is 0.42 nM.

And the IC50 (Kv1.6; [3])?
The IC50 was 207 nM.

What about the IC50 (Kv1.2; [4]) of the same compound?
Its IC50 is 100 nM.

And the IC50 (Kv1.1; [5])?
The IC50 was over 3000 nM.

And the “Selectivity Kv1.1/Kv1.3” value (Kv1.1)?
Its value is over 7100.

And the IC50 [1, 6]?
The IC50 was 0.11 nM.

CCCC[C@@H]1NC(=O)[C@@H]2CSSC[C@H](NC(=O)[C@H](CCCNC(=N)N)NC(=O)[C@H](CCCC)NC(=O)[C@H](CCC(=O)O)NC(=O)[C@@H](NC(=O)[C@@H]3CCCN3)[C@@H](C)CC)C(=O)N[C@@H](CO)C(=O)N[C@@H](C)C(=O)N[C@@H](CO)C(=O)N[C@@H](C(C)C)C(=O)N[C@@H](CCC(=O)O)C(=O)N[C@H]3CSSC[C@H](NC(=O)[C@H](CCCCN)NC(=O)[C@H](CCCCN)NC(=O)[C@H](CC(N)=O)NC1=O)C(=O)N[C@@H](CCCCN)C(=O)N[C@H](C(=O)N[C@@H](Cc1ccc(O)cc1)C(=O)N1CCC[C@H]1C(=O)N[C@@H](CCCNC(=N)N)C(=O)O)CSSC[C@H](NC(=O)[C@H](CCCCN)NC(=O)[C@H](CCC(N)=O)NC(=O)[C@H](CCCCN)NC3=O)C(=O)N[C@@H](CC(C)C)C(=O)N[C@@H](CCCCN)C(=O)N[C@@H](C)C(=O)N[C@@H]([C@@H](C)CC)C(=O)NCC(=O)N[C@@H](CO)C(=O)N[C@@H]([C@@H](C)CC)C(=O)N[C@@H](Cc1ccccc1)C(=O)NCC(=O)N[C@@H](CCCCN)C(=O)N2 [Compound 96] (H-PIE[Nle]RCSASVECKQKCLKAIGSIFGKC[Nle]NKKCKCYPR-OH; disulfide 6-27, 12-32, 16-34) was tested. Which IC50 (Kv1.3) did it give?
Its IC50 is 0.39 nM.

And the IC50 (Kv1.6)?
Its IC50 is over 3000 nM.

What about the IC50 (Kv1.2) of the same compound?
Its IC50 is 1760 nM.

What about the IC50 (Kv1.1) of the same compound?
Its IC50 is over 3000 nM.

And the IC50 [1]?
Its IC50 is 0.15 nM.

What does the source list for CCCC[C@@H]1NC(=O)[C@@H]2CSSC[C@H](NC(=O)[C@H](CCCNC(=N)N)NC(=O)[C@H](CCCC)NC(=O)[C@H](CC(=O)O)NC(=O)[C@H](CCCC)NC(=O)[C@@H](N)CC(N)=O)C(=O)N[C@@H](CO)C(=O)N[C@@H](C)C(=O)N[C@@H](CO)C(=O)N[C@@H](C(C)C)C(=O)N[C@@H](CCC(=O)O)C(=O)N[C@H]3CSSC[C@H](NC(=O)[C@H](CCCCN)NC(=O)[C@H](CCCCN)NC(=O)[C@H](CC(N)=O)NC1=O)C(=O)N[C@@H](CCCCN)C(=O)N[C@H](C(=O)N[C@@H](Cc1ccc(O)cc1)C(=O)N1CCC[C@H]1C(=O)N[C@@H](CCCNC(=N)N)C(N)=O)CSSC[C@H](NC(=O)[C@H](CCCCN)NC(=O)[C@H](CCCCN)NC(=O)[C@H](CCCCN)NC3=O)C(=O)N[C@@H](CC(C)C)C(=O)N[C@@H](CCCCN)C(=O)N[C@@H](C)C(=O)N[C@@H]([C@@H](C)CC)C(=O)NCC(=O)N[C@@H](CO)C(=O)N[C@@H]([C@@H](C)CC)C(=O)N[C@@H](Cc1ccccc1)C(=O)NCC(=O)N[C@@H](CCCCN)C(=O)N2 [Compound 45] (H-N[Nle]D[Nle]RCSASVECKKKCLKAIGSIFGKC[Nle]NKKCKCYPR-NH2; disulfide 6-27, 12-32, 16-34)?
IC50 (Kv1.3; [2]): 0.75 nM; IC50 (Kv1.6; [3]): > 3000 nM; Selectivity Kv1.6/Kv1.3 (Kv1.6): >4000; IC50 (Kv1.2; [4]): 257 nM; IC50 (Kv1.1; [5]): > 3000 nM; Selectivity Kv1.1/Kv1.3 (Kv1.1): >4000; IC50 [1, 6]: 0.16 nM
